In patent publication US20070021434A1, “NON-NUCLEOSIDE ANTI-HEPACIVIRUS AGENTS AND USES THEREOF” (Migenix Inc., priority 2005, published 2007):

Each compound was assayed against HCV RdRp (NS5B) (UniProt P26663).
Chain of HCV RdRp (NS5B) (P26663 whole entry, looked up): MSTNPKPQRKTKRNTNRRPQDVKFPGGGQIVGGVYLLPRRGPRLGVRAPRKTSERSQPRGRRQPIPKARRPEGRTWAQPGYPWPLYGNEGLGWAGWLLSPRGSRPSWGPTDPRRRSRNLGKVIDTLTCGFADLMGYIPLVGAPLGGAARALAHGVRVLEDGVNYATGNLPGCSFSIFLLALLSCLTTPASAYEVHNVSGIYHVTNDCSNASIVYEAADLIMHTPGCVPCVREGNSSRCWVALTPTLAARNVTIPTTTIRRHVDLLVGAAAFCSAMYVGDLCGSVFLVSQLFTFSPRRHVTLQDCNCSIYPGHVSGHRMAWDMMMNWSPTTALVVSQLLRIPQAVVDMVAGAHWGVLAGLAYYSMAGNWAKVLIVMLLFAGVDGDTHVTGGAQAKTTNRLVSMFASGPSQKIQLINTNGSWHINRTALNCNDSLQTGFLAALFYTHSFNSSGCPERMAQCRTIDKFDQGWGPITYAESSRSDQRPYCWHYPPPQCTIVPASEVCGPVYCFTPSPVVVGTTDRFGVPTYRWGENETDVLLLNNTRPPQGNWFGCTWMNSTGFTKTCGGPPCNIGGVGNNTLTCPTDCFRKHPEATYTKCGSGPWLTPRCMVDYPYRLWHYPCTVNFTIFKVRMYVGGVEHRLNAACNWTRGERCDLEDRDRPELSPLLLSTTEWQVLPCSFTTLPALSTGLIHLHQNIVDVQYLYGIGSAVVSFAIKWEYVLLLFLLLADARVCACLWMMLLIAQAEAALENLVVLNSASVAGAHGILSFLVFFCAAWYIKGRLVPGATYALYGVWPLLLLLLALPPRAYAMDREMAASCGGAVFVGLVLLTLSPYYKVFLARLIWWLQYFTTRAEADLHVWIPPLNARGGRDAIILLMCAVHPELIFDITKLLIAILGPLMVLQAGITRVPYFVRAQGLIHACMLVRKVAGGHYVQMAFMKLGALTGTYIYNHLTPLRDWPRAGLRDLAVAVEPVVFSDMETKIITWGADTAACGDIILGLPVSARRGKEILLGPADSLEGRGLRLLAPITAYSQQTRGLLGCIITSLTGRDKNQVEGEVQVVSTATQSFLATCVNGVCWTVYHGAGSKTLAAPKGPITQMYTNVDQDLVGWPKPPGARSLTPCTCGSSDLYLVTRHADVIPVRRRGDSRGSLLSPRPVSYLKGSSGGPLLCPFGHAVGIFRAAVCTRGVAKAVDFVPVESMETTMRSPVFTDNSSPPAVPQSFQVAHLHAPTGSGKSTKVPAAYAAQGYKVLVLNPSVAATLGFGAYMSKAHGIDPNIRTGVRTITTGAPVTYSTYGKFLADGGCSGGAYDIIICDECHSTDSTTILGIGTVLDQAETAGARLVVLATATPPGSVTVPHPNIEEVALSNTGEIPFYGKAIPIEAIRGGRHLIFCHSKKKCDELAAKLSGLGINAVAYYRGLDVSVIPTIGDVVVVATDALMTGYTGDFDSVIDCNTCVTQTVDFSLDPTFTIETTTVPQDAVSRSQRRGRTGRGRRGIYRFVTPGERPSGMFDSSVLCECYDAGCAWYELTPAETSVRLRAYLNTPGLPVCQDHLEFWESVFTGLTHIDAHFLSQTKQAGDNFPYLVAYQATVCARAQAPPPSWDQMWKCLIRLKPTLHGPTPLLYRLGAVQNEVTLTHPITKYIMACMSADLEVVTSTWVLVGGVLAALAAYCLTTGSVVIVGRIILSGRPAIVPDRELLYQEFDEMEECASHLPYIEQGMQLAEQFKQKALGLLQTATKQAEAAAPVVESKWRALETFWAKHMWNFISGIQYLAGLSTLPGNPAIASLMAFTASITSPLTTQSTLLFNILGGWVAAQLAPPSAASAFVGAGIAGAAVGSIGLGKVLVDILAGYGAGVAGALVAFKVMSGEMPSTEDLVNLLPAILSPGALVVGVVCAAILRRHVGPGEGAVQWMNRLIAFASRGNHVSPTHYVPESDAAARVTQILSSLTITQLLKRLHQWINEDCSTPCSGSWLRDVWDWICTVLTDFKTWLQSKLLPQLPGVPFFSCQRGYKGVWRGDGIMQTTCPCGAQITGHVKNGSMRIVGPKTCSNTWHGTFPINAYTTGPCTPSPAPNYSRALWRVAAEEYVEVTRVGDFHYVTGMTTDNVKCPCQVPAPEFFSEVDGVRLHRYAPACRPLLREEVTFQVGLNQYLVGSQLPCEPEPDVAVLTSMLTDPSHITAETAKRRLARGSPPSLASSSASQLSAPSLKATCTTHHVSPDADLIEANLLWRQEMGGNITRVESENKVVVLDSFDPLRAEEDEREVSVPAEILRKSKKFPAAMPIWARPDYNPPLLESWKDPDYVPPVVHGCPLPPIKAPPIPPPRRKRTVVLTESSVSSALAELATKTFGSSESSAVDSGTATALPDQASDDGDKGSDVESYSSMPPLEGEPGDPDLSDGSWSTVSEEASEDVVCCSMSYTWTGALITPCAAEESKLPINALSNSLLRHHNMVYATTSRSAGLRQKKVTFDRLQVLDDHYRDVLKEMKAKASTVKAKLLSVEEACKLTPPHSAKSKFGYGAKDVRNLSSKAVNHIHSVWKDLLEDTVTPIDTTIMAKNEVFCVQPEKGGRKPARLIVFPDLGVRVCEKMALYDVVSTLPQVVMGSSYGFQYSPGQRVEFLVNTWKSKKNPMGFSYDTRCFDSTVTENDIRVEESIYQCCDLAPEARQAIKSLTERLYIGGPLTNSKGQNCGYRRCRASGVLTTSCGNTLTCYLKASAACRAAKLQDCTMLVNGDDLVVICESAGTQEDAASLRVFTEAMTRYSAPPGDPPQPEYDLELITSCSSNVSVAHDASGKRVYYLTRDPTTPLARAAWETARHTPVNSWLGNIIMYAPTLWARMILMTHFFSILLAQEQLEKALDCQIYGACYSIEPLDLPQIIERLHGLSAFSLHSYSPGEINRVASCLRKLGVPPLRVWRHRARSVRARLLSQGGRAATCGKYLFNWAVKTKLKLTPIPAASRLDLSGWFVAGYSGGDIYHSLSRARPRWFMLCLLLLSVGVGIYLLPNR
Type: biochemical, hepatitis C virus
With `Cc1ccc(NC(=O)[C@H](CCCCN)NC(=O)COc2ccc(Cl)cc2)cc1` [Compound 331, (S)-6-AMINO-2-[2-(4-CHLORO-PHENOXY)-ACETYLAMINO]-HEXANOIC ACID P-TOLYLAMIDE] the IC50 was > 50 µM.
In the case of `Cc1ccc(NC(=O)C(CCCCN)NC(=O)Nc2ccc(C(F)(F)F)cc2)cc1` [Compound 42, (S)-6-AMINO-2-[3-(4-TRIFLUOROMETHYL-PHENYL)-UREIDO]-HEXANOIC ACID P-TOLYLAMIDE], the IC50 is reported as 10 to 50 µM.
`C=CCOC(=O)NCCCC[C@H](N)C(=O)Nc1ccc(CN(C(=O)c2ccco2)C2CCCCC2)cc1` [Compound 5, (S)-[5-AMINO-5-(4-{[CYCLOHEXYL-(FURAN-2-CARBONYL)-AMINO]-METHYL}-PHENYLCARBAMOYL)-PENTYL]-CARBAMIC ACID ALLYL ESTER] was tested, and the IC50 was > 50 µM.
In the case of `CCNCC(=O)NCCCC(NC(=O)OCC1c2ccccc2-c2ccccc21)C(=O)Nc1ccc(C)cc1` [Compound 242, (S)-[4-(2-ETHYLAMINO-ACETYLAMINO)-1-P-TOLYLCARBAMOYL-BUTYL]-CARBAMIC ACID 9H-FLUOREN-9-YLMETHYL ESTER], the IC50 is reported as < 10 µM.
`NCCCC[C@H](NC(=O)Nc1ccc(OCc2ccccc2)cc1)C(=O)NC1CCCC1` [Compound 255, (S)-6-AMINO-2-[3-(4-BENZYLOXY-PHENYL)-UREIDO]-HEXANOIC ACID CYCLOPENTYLAMIDE] was tested, and the IC50 was 10 to 50 µM.
`Cc1ccc(NC(=O)[C@H](CCCCN)NC(=O)Nc2ccc(OCc3cccc(F)c3)cc2)cc1` [Compound 249, (S)-6-AMINO-2-{3-[4-(3-FLUORO-BENZYLOXY)-PHENYL]-UREIDO}-HEXANOIC ACID P-TOLYLAMIDE] was tested, and the IC50 was 10 to 50 µM.
With `Cc1ccc(NC(=O)C(CCCCN)NC(=O)NCc2ccccc2)cc1` [Compound 168, (R)-6-AMINO-2-(3-BENZYL-UREIDO)-HEXANOIC ACID P-TOLYLAMIDE] the IC50 was > 50 µM.
For `CNC(Cc1c[nH]c2ccccc12)C(=O)NC(CCCCN)C(=O)Nc1ccc(C)cc1` [Compound 90, (S)-6-AMINO-2-[3-(1H-INDOL-3-YL)-2-(S)-METHYLAMINO-PROPIONYLAMINO]-HEXANOIC ACID P-TOLYLAMIDE], the IC50 was > 50 µM.
For `Cc1ccc(NC(=O)[C@H](CCCCN)NC(=O)CNc2ccc(Cl)cc2)cc1` [Compound 363, (S)-6-AMINO-2-[2-(4-CHLORO-PHENYLAMINO)-ACETYLAMINO]-HEXANOIC ACID P-TOLYLAMIDE], the IC50 was > 50 µM.
`Cc1ccc(NC(=O)[C@H](CCCCN)NC(=O)CNCc2ccccc2Cl)cc1` [Compound 347, (S)-6-AMINO-2-[2-(2-CHLORO-BENZYLAMINO)-ACETYLAMINO]-HEXANOIC ACID P-TOLYLAMIDE] was tested, and the IC50 was > 50 µM.
For `Cc1ccc(NC(=O)C(CCCCN)NS(=O)(=O)c2ccc(S(=O)(=O)c3ccccc3)s2)cc1` [Compound 389, (S)-6-AMINO-2-(5-BENZENESULFONYL-THIOPHENE-2-SULFONYLAMINO)-HEXANOIC ACID P-TOLYLAMIDE], the IC50 was > 50 µM.
For `NCCCC[C@H](NC(=O)OCC1c2ccccc2-c2ccccc21)C(=O)NCCc1c[nH]c2ccccc12` [Compound 57, (S)-{5-AMINO-1-[2-(1H-INDOL-3-YL)-ETHYLCARBAMOYL]-PENTYL}-CARBAMIC ACID 9H-FLUOREN-9-YLMETHYL ESTER], the IC50 was > 50 µM.
In the case of `Cc1ccc(NC(=O)C2CC(OC(=O)CCN)CN2C(=O)OCC2c3ccccc3-c3ccccc32)cc1` [Compound 130, (S)-(4-(R)-(3-AMINO-PROPIONYLOXY)-2-P-TOLYLCARBAMOYL-PYRROLIDINE-1-CARBOXYLIC ACID 9H-FLUOREN-9-YLMETHYL ESTER)], the IC50 is reported as > 50 µM.
Compound `O=C(CC1CNCCN1C(=O)NCc1ccc(Cl)cc1)Nc1ccc(C2CCCCC2)cc1` (stereo not drawn) [Compound 159, 2-[(4-CYCLOHEXYL-PHENYLCARBAMOYL)-METHYL]-PIPERAZINE-1-CARBOXYLIC ACID 4-CHLORO-BENZYLAMIDE] has an IC50 of 10 to 50 µM.
`Cc1ccc(NC(=O)C(Cc2c[nH]c3ccccc23)NC(=O)OCC2c3ccccc3-c3ccccc32)cc1` [Compound 379, (R)-[2-(1H-INDOL-3-YL)-1-P-TOLYLCARBAMOYL-ETHYL]-CARBAMIC ACID 9H-FLUOREN-9-YLMETHYL ESTER] was tested, and the IC50 was > 50 µM.
`NCCCC[C@H](NC(=O)Nc1ccc(OCc2ccccc2)cc1)C(=O)NCC1CCCCC1` [Compound 265, (s)-6-AMINO-2-[3-(4-BENZYLOXY-PHENYL)-UREIDO]-HEXANOIC ACID CYCLOHEXYLMETHYL-AMIDE] was tested, and the IC50 was 10 to 50 µM.
In the case of `Cc1ccc(NC(=O)[C@H](CCCCN)NC(=O)COc2ccccc2)cc1` [Compound 328, (S)-^6-AMINO-^2-(^2-PHENOXY-ACETYLAMINO)-HEXANOIC ACID P-TOLYLAMIDE], the IC50 is reported as > 50 µM.
With `Cc1ccc(NC(=O)C(CCCCN)NC(=O)Cc2ccc(-c3ccccc3)cc2)cc1` [Compound 50, (S)-6-AMINO-2-(2-BIPHENYL-4-YL-ACETYLAMINO)-HEXANOIC ACID P-TOLYLAMIDE] the IC50 was > 50 µM.
For `O=C(Nc1ccc(C2CCCCC2)cc1)C1CN(C(=O)OCC2c3ccccc3-c3ccccc32)CCN1` (stereo not drawn) [Compound 157, 3-(4-CYCLOHEXYL-PHENYLCARBAMOYL)-PIPERAZINE-1-CARBOXYLIC ACID 9H-FLUOREN-9-YLMETHYL ESTER], the IC50 was > 50 µM.
With `Cc1ccc(NC(=O)C2CN(C(=O)CN)CCN2C(=O)Nc2ccc(OCc3ccccc3)cc2)cc1` (racemic) [Compound 308, (±)-4-(2-AMINO-ACETYL)-PIPERAZINE-1,2-DICARBOXYLIC ACID 1-[(4-BENZYLOXY-PHENYL)-AMIDE]2-P-TOLYLAMIDE] the IC50 was > 50 µM.
In the case of `Cc1ccc(NC(=O)CC2CN(C(=O)CN)CCN2C(=O)OCC2c3ccccc3-c3ccccc32)cc1` (racemic) [Compound 182, (+/−)-4-(2-AMINO-ACETYL)-2-(P-TOLYLCARBAMOYL-METHYL)-PIPERAZINE-1-CARBOXYLIC ACID 9H-FLUOREN-9-YLMETHYL ESTER], the IC50 is reported as > 50 µM.
`Cc1ccc(NC(=O)C(CCCCN)NC(=O)CNc2ccc(C(F)(F)F)cc2)cc1` [Compound 365, (S)-6-AMINO-2-[2-(4-TRIFLUOROMETHYL-PHENYLAMINO)-ACETYLAMINO]-HEXANOIC ACID P-TOLYLAMIDE] was tested, and the IC50 was > 50 µM.
`NCCCC[C@H](NC(=O)NCc1ccc(Cl)c(Cl)c1)C(=O)Nc1ccc(CN(C(=O)c2ccco2)C2CCCCC2)cc1` [Compound 154, (S)-FURAN-2-CARBOXYLIC ACID (4-{6-AMINO-2-[3-(3,4-DICHLORO-BENZYL)-UREIDO]-HEXANOYLAMINO}-BENZYL)-CYCLOHEXYL-AMIDE] gave an IC50 of 10 to 50 µM.
For `Cc1ccc(NC(=O)[C@H](CCCCN)NC(=O)Nc2ccc(OCc3cc(F)cc(F)c3)cc2)cc1` [Compound 256, (S)-6-AMINO-2-{3-[4-(3,5-DIFLUORO-BENZYLOXY)-PHENYL]-UREIDO}-HEXANOIC ACID P-TOLYLAMIDE], the IC50 was > 50 µM.
For `CC(=O)c1cccc(NC(=O)[C@H](CCCCN)NC(=O)OCC2c3ccccc3-c3ccccc32)c1` [Compound 219, (S)-[1-(3-ACETYL-PHENYLCARBAMOYL)-5-AMINO-PENTYL]-CARBAMIC ACID 9H-FLUOREN-9-YLMETHYL ESTER], the IC50 was > 50 µM.
In the case of `Cc1ccc(NC(=O)[C@H](CCCCN)NC(=O)Nc2ccc(NCc3ccc(F)cc3)cc2)cc1` [Compound 225, (S)-6-AMINO-2-{3-[4-(4-FLUORO-BENZYLAMINO)-PHENYL]-UREIDO}-HEXANOIC ACID P-TOLYLAMIDE], the IC50 is reported as > 50 µM.
With `NCCCCCCNC(=O)C(Cc1ccccc1)NC(=O)Nc1ccc(OCc2ccccc2)cc1` [Compound 263, (S)—NR-(6-AMINO-HEXYL)-2-13-(4-BENZYLOXY-PHENYL)-UREIDO]-3-PHENYL-PROPIONAMIDE] the IC50 was 10 to 50 µM.
In the case of `Cc1ccc(NC(=O)[C@H](CCCCN)NC(=O)OCC2c3ccccc3-c3ccccc32)cn1` [Compound 229, (S)-[5-AMINO-1-(6-METHYL-PYRIDIN-3-YLCARBAMOYL)-PENTYL]-CARBAMIC ACID 9H-FLUOREN-9-YLMETHYL ESTER], the IC50 is reported as > 50 µM.
`Cc1ccc(NC(=O)[C@H](CCCCN)NC(=O)Nc2ccc(OCc3ccc(F)cc3F)cc2)cc1` [Compound 285, (S)-6-AMINO-2-{3-[4-(2,4-DIFLUORO-BENZYLOXY)-PHENYL]-UREIDO}-HEXANOIC ACID P-TOLYLAMIDE] gave an IC50 of 10 to 50 µM.
In the case of `Cc1ccc(NC(=O)C(Cc2ccc(CN)cc2)NC(=O)Nc2ccc3c(c2)Cc2ccccc2-3)cc1` [Compound 147, (S)-3-(4-AMINOMETHYL-PHENYL)-2-[3-(9H-FLUOREN-2-YL)-UREIDO]-N-P-TOLYL-PROPIONAMIDE], the IC50 is reported as < 10 µM.
`Cc1ccc(NC(=O)[C@H](CCCCN)NC(=O)CNCc2ccc(Cl)cc2)cc1` [Compound 349, (S)-6-AMINO-2-[2-(4-CHLORO-BENZYLAMINO)-ACETYLAMINO]-HEXANOIC ACID P-TOLYLAMIDE] was tested, and the IC50 was > 50 µM.
`Cc1ccc(NC(=O)[C@H](CCCCN)NC(=O)NCc2ccc(Cl)cc2)cc1` [Compound 167, (S)-6-AMINO-2-[3-(4-CHLORO-BENZYL)-UREIDO]-HEXANOIC ACID P-TOLYLAMIDE] was tested, and the IC50 was > 50 µM.
`CNc1ccc(NC(=O)[C@H](CCCCN)NC(=O)OCC2c3ccccc3-c3ccccc32)cc1` [Compound 209, (S)-[5-AMINO-1-(4-METHYLAMINO-PHENYLCARBAMOYL)-PENTYL]-CARBAMIC ACID 9H-FLUOREN-9-YLMETHYL ESTER] showed an IC50 of 10 to 50 µM.
For `Cc1ccc(NC(=O)[C@H](CCCCN)NC(=O)CNCc2cccc(Cl)c2)cc1` [Compound 348, (S)-6-AMINO-2-[2-(3-CHLORO-BENZYLAMINO)-ACETYLAMINO]-HEXANOIC ACID P-TOLYLAMIDE], the IC50 was > 50 µM.
In the case of `Cc1ccc(NC(=O)C(CCCC[N+](C)(C)C)NC(=O)OCC2c3ccccc3-c3ccccc32)cc1` (stereo not drawn) [Compound 110], the IC50 is reported as > 50 µM.
With `Cc1ccc(NC(=O)C(CCCCN)NC(=O)CNCc2ccc(C(F)(F)F)cc2)cc1` [Compound 352, (S)-6-AMINO-2-[2-(4-TRIFLUOROMETHYL-BENZYLAMINO)-ACETYLAMINO]-HEXANOIC ACID P-TOLYLAMIDE] the IC50 was > 50 µM.
`CC(C)(C)c1ccc(NC(=O)[C@H](Cc2ccc(CN)cc2)NC(=O)Nc2ccc(-c3ccccc3)cc2)cc1` [Compound 150, (S)-3-(4-AMINOMETHYL-PHENYL)-2-(3-BIPHENYL-4-YL-UREIDO)-N-(4-TERT-BUTYL-PHENYL)-PROPIONAMIDE] was tested, and the IC50 was < 10 µM.
For `Cc1ccc(NC(=O)C(CCCCN)NC(=O)Nc2ccc(-c3ccccc3)cc2)cc1` [Compound 171, (R)-6-AMINO-2-(3-BIPHENYL-4-YL-UREIDO)-HEXANOIC ACID P-TOLYLAMIDE], the IC50 was 10 to 50 µM.
For `COC(=O)c1ccc(C(=O)NC(C)(C)C(=O)Nc2ccc(CN(C(=O)c3ccco3)C3CCCCC3)cc2)cc1` [Compound 3, N-[1-(4-{[CYCLOHEXYL-(FURAN-2-CARBONYL)-AMINO]-METHYL}-PHENYLCARBAMOYL)-1-METHYL-ETHYL]-TERE[…] METHYL ESTER], the IC50 was > 50 µM.
